Test systems include A549 NSCLC; CAKI-1 renal; HCT-116 colon; HOP-62 NSCLC; MOLT-4 leukemia; SK-MEL-28 melanoma; SK-OV-3 ovarian; SR leukemia; T-47D breast.
Test in all cases: growth of human tumour cells (NCI), 48 h

TGI data for 14 compounds are collected here from PubChem BioAssay (NCI).

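Where inhibition never reached the appropriate level, the endpoint shown equals the highest concentration tested. Otherwise, values were interpolated linearly from a five-concentration, 48-hour dose response in 96-well plates. TGI denotes the concentration required for complete inhibition of growth.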

`Cc1cccc2c1C(=O)[C@@](C)([C@]1(C)Nc3cccc(C)c3C1=O)N2`: the TGI in the assay with A549 NSCLC, in the assay with CAKI-1 renal, with HCT-116 colon, in the assay on HOP-62 NSCLC, with MOLT-4 leukemia and in the assay on SK-MEL-28 melanoma was above 100 µM each time. Also, the TGI with SK-OV-3 ovarian, with SR leukemia and in the assay on T-47D breast was above 100 µM in each case.
In the case of `OC(O)(C(F)(F)F)C(F)(F)F`, the TGI with A549 NSCLC, in the assay on CAKI-1 renal, with HCT-116 colon, in the assay on HOP-62 NSCLC, in the assay with MOLT-4 leukemia and in the assay on SK-MEL-28 melanoma was above 100 µM in each case. The TGI in the assay with SK-OV-3 ovarian, in the assay with SR leukemia and with T-47D breast was above 100 µM throughout.
With `CN(C)c1ccc(/C=C2\C[C@H]3[C@@H]4CCc5cc(O)ccc5[C@H]4CC[C@]3(C)C2=O)cc1`, the TGI in the assay on A549 NSCLC, in the assay on CAKI-1 renal, with HOP-62 NSCLC, in the assay on MOLT-4 leukemia, with SK-MEL-28 melanoma and in the assay on SK-OV-3 ovarian was above 100 µM throughout. Besides, the TGI in the assay on SR leukemia and in the assay with T-47D breast was above 100 µM throughout.
In the case of `COC(=O)C(C(=O)OC)C1CC(=O)c2c(Br)sc(Br)c21` (stereo not drawn), the TGI is 68.8 µM with A549 NSCLC; 21.1 µM with CAKI-1 renal; 30.9 µM in the assay with HCT-116 colon; 46.3 µM in the assay with HOP-62 NSCLC; 18.7 µM in the assay with MOLT-4 leukemia; 34.2 µM with SK-MEL-28 melanoma. For the same compound, the TGI in the assay with SK-OV-3 ovarian is 44 µM; in the assay on SR leukemia it was 34.6 µM; in the assay on T-47D breast, above 100 µM.
Take `COc1cc(S(=O)(=O)N/N=C/c2cc(Br)c(O)c(OC)c2)c(OC)cc1NC(C)=O`: the TGI with A549 NSCLC, in the assay with CAKI-1 renal, in the assay on HCT-116 colon, in the assay on HOP-62 NSCLC, in the assay on MOLT-4 leukemia and in the assay on SK-MEL-28 melanoma was above 100 µM each time. The TGI in the assay on SK-OV-3 ovarian, with SR leukemia and in the assay with T-47D breast was above 100 µM each time.
For the compound `COc1cc(-c2[o+]c3cc(O)cc(OC4OC(CO)C(O)C(O)C4O)c3cc2OC2OC(CO)C(O)C(O)C2O)cc(OC)c1O` (stereo not drawn), the TGI in the assay with A549 NSCLC, with CAKI-1 renal, in the assay with HCT-116 colon, in the assay on HOP-62 NSCLC, in the assay on MOLT-4 leukemia and in the assay on SK-MEL-28 melanoma was above 100 µM in each case. Besides, the TGI in the assay with SK-OV-3 ovarian, in the assay with SR leukemia and in the assay on T-47D breast was above 100 µM each time.
As for `COc1cc2c(cc1O)CC[C@@H]1C2CC[C@@]2(C)C1CC[C@@H]2O` (stereo partly drawn), the TGI with A549 NSCLC is above 100 µM; in the assay on CAKI-1 renal it was above 97.4 µM; with HCT-116 colon, above 81 µM; with HOP-62 NSCLC it was 45.8 µM; in the assay on MOLT-4 leukemia, 32.1 µM; in the assay on SK-MEL-28 melanoma it was above 100 µM. The figures for the TGI in the assay on SK-OV-3 ovarian, with SR leukemia and with T-47D breast were above 100 µM, 5.44 µM and above 100 µM, respectively.
Consider `Cn1c(=O)c2sc3cc4c(cc3c2c2ccccc21)sc1c(=O)n(C)c2ccccc2c14`, for which the TGI with A549 NSCLC was above 100 µM; in the assay on CAKI-1 renal, above 100 µM; with HCT-116 colon, above 100 µM; in the assay with HOP-62 NSCLC, 42.3 µM; in the assay with MOLT-4 leukemia, above 100 µM; with SK-MEL-28 melanoma, above 100 µM. In addition, the TGI in the assay with SK-OV-3 ovarian, in the assay on SR leukemia and in the assay on T-47D breast was above 100 µM throughout.
In the case of `CCOC(=O)CCC(C(=O)OCC)n1nnc2cc(Nc3c(C)[n+]([O-])c4ccc(Cl)cc4[n+]3[O-])ccc21` (stereo not drawn), the TGI with A549 NSCLC, with CAKI-1 renal, in the assay with HCT-116 colon, with HOP-62 NSCLC, with MOLT-4 leukemia and in the assay on SK-OV-3 ovarian was above 100 µM throughout. Further, the TGI in the assay with SR leukemia and in the assay on T-47D breast was above 100 µM throughout.
Take `CC1(O)C(=O)OC2CC([C@]3(O)CCC4[C@@H]5C[C@H]6O[C@]67[C@@H](O)C=CC(=O)[C@]7(C)C5CC[C@@]43C)C1(C)C2` (stereo partly drawn): the TGI with A549 NSCLC was above 100 µM; in the assay on CAKI-1 renal, 25.4 µM; in the assay with HCT-116 colon, 23.1 µM; with HOP-62 NSCLC it was above 100 µM; with MOLT-4 leukemia, 31.6 µM; with SK-MEL-28 melanoma, 26 µM. Further, the TGI was above 100 µM in the assay with SK-OV-3 ovarian, 10.6 µM in the assay on SR leukemia and 18.5 µM in the assay on T-47D breast.
`CCCC(=O)OC1CC(n2cc(F)c(=O)[nH]c2=O)OC1CO` (stereo not drawn): the TGI in the assay with A549 NSCLC, in the assay with CAKI-1 renal, in the assay on HCT-116 colon, in the assay on HOP-62 NSCLC, in the assay with MOLT-4 leukemia and in the assay on SK-MEL-28 melanoma was above 10 µM throughout. Further, the TGI in the assay on SK-OV-3 ovarian, with SR leukemia and with T-47D breast was above 10 µM each time.
Take `CCOC(=O)c1cn(C)nc1N/C(C)=C\C(=O)c1ccccc1`: the TGI with A549 NSCLC, with CAKI-1 renal, with HOP-62 NSCLC, in the assay with MOLT-4 leukemia, with SK-MEL-28 melanoma and in the assay with SK-OV-3 ovarian was above 100 µM throughout. Further, the TGI in the assay on SR leukemia and in the assay on T-47D breast was above 100 µM each time.
Turning to `N#Cc1c(-c2ccc(Cl)cc2)cc(-c2nc3ccccc3[nH]2)nc1N`, the TGI in the assay on A549 NSCLC turned out to be 20.9 µM; with CAKI-1 renal it was 46.6 µM; with HCT-116 colon, 22.5 µM; with HOP-62 NSCLC, 38.5 µM; with MOLT-4 leukemia, 26.8 µM; in the assay on SK-MEL-28 melanoma it was 36 µM. The figures for the TGI with SK-OV-3 ovarian, in the assay with SR leukemia and in the assay with T-47D breast were 77.4 µM, 35.1 µM and 19.4 µM, respectively.
As for `COc1ccc(NC(=S)NNC(=O)c2cc(-c3ccccc3)nc3ccccc23)cc1`, the TGI in the assay on A549 NSCLC turned out to be 47 µM; in the assay with CAKI-1 renal, 60 µM; in the assay with HCT-116 colon it was 27 µM; with HOP-62 NSCLC it was 33.3 µM; in the assay on MOLT-4 leukemia it was 59.2 µM; with SK-MEL-28 melanoma it was 43.3 µM. For the same compound, the TGI with SK-OV-3 ovarian worked out at 15.9 µM; in the assay with SR leukemia, 9.79 µM; in the assay with T-47D breast, 59.7 µM.
